According to paper PMC4806491, “The milk-derived fusion peptide, ACFP, suppresses the growth of primary human ovarian cancer cells by regulating apoptotic gene expression and signaling pathways” (BMC Cancer, 2016):
Positions of bridges follow the written chain, without caps; N, C: chain ends. Residues, ends and D or L forms follow the SMILES beside them.

Test system: primary ovarian cancer cells
Test: Real time PCR of bcl-xl, bax, akt, caspase-3, CDC25C and cyclinB1 mRNA
Assay type: cell-based, human
Details: increasing concentration, 48 h, 2^-ΔΔCt, β-actin reference, 12 patients
Description: An optimized RT-PCR protocol was employed to analyze the mRNA levels of bcl-xl, bax, akt, caspase-3, CDC25C and cyclinB1. Beta-actin was used as a housekeeping gene. According to primer sequences of bcl-xl, bax, akt, caspase-3, CDC25C, cyclinB1 and β-actin genes retrieved from Primer-Bank, primers were designed with the Primer 5.0 software, which were synthesized by Shanghai Sangon Biological Engineering Technology. These primer sequences are as follows: • bcl-xl forward 5′-[…]-3′, • bcl-xl reverse 5′-[…]-3′; • bax forward 5′-[…]-3′, • bax reverse 5′-[…]-3′; • akt forward 5′-[…]-3′, • akt reverse 5′-[…]-3′; • caspase-3 forward 5′-[…]-3′, • caspase-3 reverse 5′[…]-3′; • CDC25C forward 5′-[…]-3′, • CDC25C reverse 5′-[…]-3′; • cyclinB1 forward 5′-[…]-3′, • cyclinB1 reverse 5′-[…]-3′; • β-actin forward 5′-[…]-3′, • β-actin reverse 5′-[…]-3′.
Primary ovarian cancer cells were harvested after ACFP treatment at different doses and times, respectively. The total RNAs in the primary ovarian cancer cells were extracted according to the Trizol kit manufacturer’s instructions, and the purity and concentration were determined by ultraviolet spectrophotometry. […]
Real time PCR adopts TaKaRa SYBR Green as real time PCR Master Mix in ABI7500 fluorescent real-time PCR instrument. […] Finally, the relative mRNA expression of all samples were calculated using the 2^-ΔΔCt method. […]

CC[C@H](C)[C@@H]1NC(=O)[C@H](CO)NC(=O)[C@@H]2CCCN2C(=O)[C@H](C)NC(=O)CNC(=O)[C@H](CC(C)C)NC(=O)[C@H](CCCCN)NC(=O)[C@H](CCCCN)NC(=O)[C@H](CCSC)NC(=O)[C@H](CCCNC(=N)N)NC(=O)[C@H](Cc2c[nH]c3ccccc23)NC(=O)[C@H](CCC(N)=O)NC(=O)[C@H](Cc2c[nH]c3ccccc23)NC(=O)[C@H](CCCNC(=N)N)NC(=O)[C@H](CCCNC(=N)N)NC(=O)[C@@H](NC(=O)[C@H](CCCCN)NC(=O)[C@@H](N)Cc2ccccc2)CSSC[C@@H](C(=O)N[C@H](C(=O)N[C@@H](CCCNC(=N)N)C(=O)N[C@@H](CCCNC(=N)N)C(=O)N[C@@H](C)C(=O)N[C@@H](Cc2ccccc2)C(=O)NCC(=O)NCC(=O)NCC(=O)NCC(=O)N[C@@H](CO)C(=O)N2CCC[C@H]2C(=O)NCC(=O)N2CCC[C@H]2C(=O)N[C@H](C(=O)N2CCC[C@H]2C(=O)N[C@@H](CC(N)=O)C(=O)O)[C@@H](C)CC)C(C)C)NC(=O)[C@H]([C@@H](C)O)NC1=O [ACFP] (H-FKCRRWQWRMKKLGAPSITCVRRAFGGGGSPGPIPN-OH; disulfide 3-20; N-terminus and C-terminus assumed)
mRNA expression of bax and caspase-3: gradual increase | mRNA expression of bcl-xl, akt, CDC25C and cyclinB1: gradually decreased
